44 compounds from ChEMBL document CHEMBL1201862, “PubChem BioAssay data set” (2004) can be followed below.

Calls of active or inactive are those of the source.

The nature of series [1]: Luminescence Cell-Based Dose Response HTS to Identify Activators of Luciferase Translation or Activity in H4 […] Cells. [Related pubchem assays: 1829 (Project Summary), 1814 (Primary HTS)]. Type of series: functional.
Series [2] concerns the target T1, Heat shock factor protein 1 (Mus musculus, UniProt P38532).
T1 sequence (P38532 whole entry): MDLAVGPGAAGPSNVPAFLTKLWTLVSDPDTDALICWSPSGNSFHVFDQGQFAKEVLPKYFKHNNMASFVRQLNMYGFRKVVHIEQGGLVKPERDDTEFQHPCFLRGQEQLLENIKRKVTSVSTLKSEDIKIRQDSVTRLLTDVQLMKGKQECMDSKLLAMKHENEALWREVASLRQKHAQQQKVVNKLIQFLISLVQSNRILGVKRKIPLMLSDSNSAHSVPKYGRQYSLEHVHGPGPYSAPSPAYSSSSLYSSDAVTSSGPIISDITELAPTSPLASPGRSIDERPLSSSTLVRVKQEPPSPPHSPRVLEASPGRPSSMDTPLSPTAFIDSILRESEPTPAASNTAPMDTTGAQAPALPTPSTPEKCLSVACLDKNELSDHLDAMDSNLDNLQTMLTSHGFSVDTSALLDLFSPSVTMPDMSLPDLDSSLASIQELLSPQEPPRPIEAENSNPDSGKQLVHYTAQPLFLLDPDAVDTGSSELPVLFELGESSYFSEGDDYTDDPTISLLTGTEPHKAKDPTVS
Nature of the series: decrease of HSF1-responsive luciferase luminescence – cell-based, NIH3T3, dose retest, confirmation (AID 2382).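 Also: NIH3T3 fibroblasts with HSF1-driven luciferase reporter stressed by proteasome inhibitor MG132; luminescence from HSF1-driven luciferase expression after 8 hours of MG132 stress.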 The series is classed as functional.

Another series concerns H4. Nature of the series: Luminescence Cell-Based Dose Response HTS to Identify Activators of 5'UTR Stem-Loop Driven Prion Protein mRNA Translation in H4 Neuroglioblastoma Cells. [Related pubchem assays: 1829 (Project Summary), 1814 (Primary HTS)]. The series is classed as functional. As to conditions: Homo sapiens.
In another series the test system is Streptococcus. Briefly: GAS UMAA2166 growth inhibition – luminescence, BacTiterGlo, counter-screen for streptokinase expression inhibitor project, dose response (AID 1915).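 Also: potency for reduction of bacterial viability or growth.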 Type of series: functional, organism-based. (In general: A counterscreen serves to expose hits that act by an unwanted route or on another target.)
Series [3] concerns Streptococcus sp. 'group A'. Nature of the series: Streptococcus pyogenes SK(-)GAS viability under kanamycin – luminescence, BacTiterGlo, confirmation, counter-screen for streptokinase expression inhibitor project, dose response (AID 1900). Type of series: functional, organism-based.
The next series deals with T2, Streptokinase A (Streptococcus pyogenes serotype M1, UniProt P10520).
T2 sequence (P10520 whole entry): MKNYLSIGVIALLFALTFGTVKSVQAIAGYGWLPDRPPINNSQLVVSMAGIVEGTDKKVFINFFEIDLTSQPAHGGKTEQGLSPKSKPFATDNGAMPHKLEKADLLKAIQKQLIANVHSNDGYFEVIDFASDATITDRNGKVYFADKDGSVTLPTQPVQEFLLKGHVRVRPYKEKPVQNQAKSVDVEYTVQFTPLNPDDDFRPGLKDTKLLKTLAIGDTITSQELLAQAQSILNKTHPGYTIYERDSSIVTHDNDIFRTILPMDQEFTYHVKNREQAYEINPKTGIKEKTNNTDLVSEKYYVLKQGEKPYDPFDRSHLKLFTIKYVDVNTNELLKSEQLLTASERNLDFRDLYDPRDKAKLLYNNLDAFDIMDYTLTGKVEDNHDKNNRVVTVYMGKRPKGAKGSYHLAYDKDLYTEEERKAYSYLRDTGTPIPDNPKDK
Nature of the series: viability-normalized secreted streptokinase activity reduction – plasminogen activation absorbance, OD405, dose response (AID 1914).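 Also: secreted streptokinase activity via plasminogen activation per viability signal from cell pellet.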 The series is classed as functional, Streptococcus pyogenes M1 GAS.

Another series addresses Cytochrome P450 2C19 (Homo sapiens, UniProt P33261). Briefly: Cytochrome panel assay with activity outcomes. Panel member name: p450-cyp2c19 Compounds with AC50 equal or less than 10 uM are considered active. The series is classed as functional.
For the next series, the target named is Cytochrome P450 3A4 (Homo sapiens, UniProt P08684).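 Also: CYP3A4 tested as one member of a cytochrome P450 panel screen.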
The next series deals with Cytochrome P450 2C9 (Homo sapiens, UniProt P11712).
A further series deals with Cytochrome P450 2D6 (Homo sapiens, UniProt P10635).
Cytochrome P450 2D6, sequence (P10635 whole entry): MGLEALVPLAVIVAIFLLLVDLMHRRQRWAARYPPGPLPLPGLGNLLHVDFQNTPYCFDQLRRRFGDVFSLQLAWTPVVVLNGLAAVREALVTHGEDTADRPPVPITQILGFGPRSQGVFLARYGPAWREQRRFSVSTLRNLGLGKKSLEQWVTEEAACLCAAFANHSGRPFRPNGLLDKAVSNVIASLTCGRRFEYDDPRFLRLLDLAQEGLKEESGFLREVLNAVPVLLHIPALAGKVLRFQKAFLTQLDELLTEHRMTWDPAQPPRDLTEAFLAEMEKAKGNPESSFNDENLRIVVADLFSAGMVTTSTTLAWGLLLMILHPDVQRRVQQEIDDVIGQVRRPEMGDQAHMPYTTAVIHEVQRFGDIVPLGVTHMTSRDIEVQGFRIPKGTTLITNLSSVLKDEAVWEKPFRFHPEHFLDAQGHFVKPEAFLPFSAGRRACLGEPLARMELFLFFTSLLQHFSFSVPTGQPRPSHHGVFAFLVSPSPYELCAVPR

Cytochrome P450 3A4, sequence (P08684 whole entry): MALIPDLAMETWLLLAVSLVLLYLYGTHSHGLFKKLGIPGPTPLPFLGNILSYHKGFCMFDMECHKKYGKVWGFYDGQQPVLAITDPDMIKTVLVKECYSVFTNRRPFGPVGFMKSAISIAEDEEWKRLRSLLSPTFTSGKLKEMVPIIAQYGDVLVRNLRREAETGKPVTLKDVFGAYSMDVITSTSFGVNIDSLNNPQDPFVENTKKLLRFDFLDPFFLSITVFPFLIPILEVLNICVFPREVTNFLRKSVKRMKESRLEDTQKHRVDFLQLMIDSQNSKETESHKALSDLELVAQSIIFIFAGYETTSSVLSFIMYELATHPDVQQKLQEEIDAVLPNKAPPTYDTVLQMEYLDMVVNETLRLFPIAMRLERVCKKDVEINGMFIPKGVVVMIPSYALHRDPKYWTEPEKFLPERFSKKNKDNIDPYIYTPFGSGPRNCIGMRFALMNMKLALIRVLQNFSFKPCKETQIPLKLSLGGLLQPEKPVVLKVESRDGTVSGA
Cytochrome P450 2C19, sequence (P33261 whole entry): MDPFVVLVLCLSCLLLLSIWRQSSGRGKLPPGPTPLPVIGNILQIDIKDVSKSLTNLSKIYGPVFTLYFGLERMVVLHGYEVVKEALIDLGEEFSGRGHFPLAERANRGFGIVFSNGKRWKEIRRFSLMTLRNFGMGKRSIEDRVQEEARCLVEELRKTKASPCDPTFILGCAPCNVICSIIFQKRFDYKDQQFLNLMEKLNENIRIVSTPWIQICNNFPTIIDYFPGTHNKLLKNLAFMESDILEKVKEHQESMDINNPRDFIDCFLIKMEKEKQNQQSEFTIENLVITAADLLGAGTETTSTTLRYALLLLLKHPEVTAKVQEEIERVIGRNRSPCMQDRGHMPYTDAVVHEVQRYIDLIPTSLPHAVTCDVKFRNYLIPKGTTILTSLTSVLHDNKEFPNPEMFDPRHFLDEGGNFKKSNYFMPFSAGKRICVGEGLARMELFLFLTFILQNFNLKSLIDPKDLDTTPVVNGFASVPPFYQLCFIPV
Cytochrome P450 2C9, sequence (P11712 whole entry): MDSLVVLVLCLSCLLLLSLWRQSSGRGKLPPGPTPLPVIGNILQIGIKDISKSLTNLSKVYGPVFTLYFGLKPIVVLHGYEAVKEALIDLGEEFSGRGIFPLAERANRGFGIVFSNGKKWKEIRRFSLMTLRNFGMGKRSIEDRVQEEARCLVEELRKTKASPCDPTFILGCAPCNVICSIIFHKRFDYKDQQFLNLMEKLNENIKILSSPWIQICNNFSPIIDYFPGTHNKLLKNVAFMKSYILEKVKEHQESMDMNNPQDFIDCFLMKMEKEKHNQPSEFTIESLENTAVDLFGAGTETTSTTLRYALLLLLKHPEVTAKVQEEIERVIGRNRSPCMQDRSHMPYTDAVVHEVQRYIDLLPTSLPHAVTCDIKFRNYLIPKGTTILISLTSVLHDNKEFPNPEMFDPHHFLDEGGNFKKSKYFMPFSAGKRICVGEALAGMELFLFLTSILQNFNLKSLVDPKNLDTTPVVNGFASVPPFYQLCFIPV

As for `Cc1cc(=O)n2nc(-c3ccc(C(F)(F)F)cc3)sc2n1`, the EC50 (usually the concentration at which the effect is half-maximal) in series [1] was > 120 µM (not active); in [2], > 195 µM (not active); in the series on H4 it was 8.75 µM (active).
Consider `CN(CC(=O)Nc1ccc(F)cc1)C(=O)COC(=O)c1cc(S(=O)(=O)N(C)C)ccc1N1CCCC1`, for which the EC50 in [2] is on record as > 195 µM (not active).
On the same count and under the same terms, under `COc1ccc(CCNCC(O)Cn2ccc3ccccc32)cc1OC` (stereo not drawn) stands > 100 µM (not active); under `CCCn1c(N2CCN(CC(=O)NCc3cccs3)CC2)nc2ccccc21`, > 195 µM (not active).
For `C=CCSc1nc(-c2ccccc2)c2cc(Cl)ccc2n1`, the EC50 in the series with Streptococcus is 46.4 µM (active); in series [3], 15 µM (active); at Streptokinase A, 29.4 µM (active).
As to `Cc1ccc(Cn2c(Sc3ncccn3)nc3c2c(=O)[nH]c(=O)n3C)cc1`, the EC50 in series [2] was > 195 µM (not active).
Consider `CCN(CC(=O)Nc1ccccc1C(F)(F)F)C(=O)c1cc(-c2ccccc2)nn1-c1ccccc1`, for which the values for the EC50 (in the series on Streptococcus; in series [3]; on Streptokinase A) were > 150 µM (not active), 19.9 µM (active) and 23.9 µM (active), respectively.
On to `O=C(CSc1nnc(CNC(=O)c2ccc(F)cc2)o1)NCc1ccccc1`, for which the EC50 (with Streptococcus; in [3]; at Streptokinase A) was > 150 µM (not active) each time.
Turning to `CNC(=O)c1ccsc1NC(=O)c1ccc(Cl)s1`, in [2], the EC50 is on record as > 195 µM (not active).
For the compound `CCn1c(SCC(=O)N2CC(C)OC(C)C2)nc2c3ccccc3nc-2c1O` (stereo not drawn), the EC50 (in the series with Streptococcus; in series [3]; at Streptokinase A) was > 150 µM (not active) each time.
`Cc1ccc(S(=O)(=O)N(C)CC(=O)ONC(=N)c2ccccn2)cc1`: the values for the AC50 entry at Cytochrome P450 2C19 and at Cytochrome P450 3A4 were “inconclusive” and 22.4 µM (inconclusive), respectively.
For the compound `O=C(OC(C(=O)NC1CCCC1)c1ccncc1)C1=Cc2ccccc2OC1` (stereo not drawn), in [2], the EC50 is given as > 195 µM (not active).
For `Cc1cc(-c2cccs2)nc(-n2cccc2)n1`, the figures for the concentration at half-maximal activity (AC50) at Cytochrome P450 2C19 (read-out: AC50) and on Cytochrome P450 3A4 were 5.62 µM (inconclusive) and 31.6 µM (inconclusive), respectively.
Take `O=C(NCCc1ccccc1)C(=O)NN=C1CCCC1`: the AC50 (usually the concentration giving half of the maximal activity seen) at Cytochrome P450 2C19 (read-out: AC50) is 0.355 µM (inconclusive); at Cytochrome P450 3A4, 31.6 µM (inconclusive).
Consider `Cc1cc(Nc2ccc(Cl)cc2)nc(N)n1`, for which the AC50 on Cytochrome P450 2C19 (read-out: AC50) was 8.91 µM (inconclusive); at Cytochrome P450 3A4, 5.62 µM (inconclusive).
Take `CCOC(=O)c1cccc(NC(=S)N2CCN(c3ncc4c(=O)c(C(=O)O)cn(CC)c4n3)CC2)c1`: the EC50 is 29.9 µM (active) in the series with Streptococcus, 5.98 µM (active) in series [3] and > 150 µM (not active) at Streptokinase A.
`O=C(c1cc(Br)c[nH]1)N1CCSCC1`: the EC50 in [2] is > 195 µM (not active).
Consider `COc1cccc(Cn2c(=O)c(-c3cccc(C#N)c3)nc3cnc(N4CCN(C)CC4)nc32)c1`, for which, on Cytochrome P450 3A4, the AC50 was 25.1 µM (inconclusive).
On to `O=S(=O)(N=C(Nc1ccccn1)c1ccccc1)c1ccc(Cl)cc1`, for which the AC50 was 1.41 µM (inconclusive) on Cytochrome P450 3A4 and 11.2 µM (inconclusive) at Cytochrome P450 2C9.
For the compound `CCOc1ccc(N(CC(=O)NN=C2CCCC2)S(C)(=O)=O)cc1`, in series [2], the EC50 was > 195 µM (not active).
As for `COc1cccc(-n2nc(-c3ccnn3-c3cccc(Cl)c3)c(=O)n(C)c2=O)c1`, the EC50 in series [2] is > 195 µM (not active).
As to `CCN(c1ccc(OC)cc1)S(=O)(=O)c1nnc(NC(=O)c2ccccc2Cl)s1`, the EC50 in the series on Streptococcus was 99.3 µM (active); in series [3], 9.51 µM (active); on Streptokinase A it was 5.58 µM (active).
In the case of `O=C(Nc1cc(Sc2ccccn2)cc([N+](=O)[O-])c1)c1ccc([N+](=O)[O-])cc1`, the AC50 on Cytochrome P450 2C19 (read-out: AC50) was 5.01 µM (inconclusive); at Cytochrome P450 3A4, 7.94 µM (inconclusive); on Cytochrome P450 2C9 it was 10 µM (inconclusive).
Turning to `N#CCCn1c(=O)c(-c2ccccc2)nc2cnc(OCc3ccccc3)nc21`, the AC50 was 39.8 µM (inconclusive) at Cytochrome P450 2C19 (read-out: AC50) and 7.94 µM (inconclusive) on Cytochrome P450 3A4.
In the case of `Cc1cc(C)c2c(n1)sc1c(O)nc(SCc3ccccc3)nc12`, the concentration for a half-maximal effect (EC50) in series [2] was > 195 µM (not active).
Take `COc1ccc(C(=O)CSc2nnc(CNC(=O)c3ccc(S(=O)(=O)N(C)C)cc3)o2)cc1`: the EC50 (in the series on Streptococcus; in series [3]; on Streptokinase A) was > 150 µM (not active) in each case.
Regarding `COc1ccc(-c2cc(C3CCN(c4ncccc4[N+](=O)[O-])CC3)[nH]n2)cc1`, the EC50 in the series with Streptococcus is 13 µM (active); in [3] it was 4.96 µM (active); on Streptokinase A, > 150 µM (not active).
In the case of `O=C(CN1C(=O)NC(Cc2ccccc2)C1=O)Nc1ccc(OC(F)F)cc1` (stereo not drawn), the EC50 in series [2] is listed as > 195 µM (not active).
Regarding `O=C(NC1CCCCC1)C(=S)NC1CCCCC1`, the EC50 in the series on H4 is 2.43 µM (active).
Regarding `Clc1ccc2[nH]c(-c3ccc(Cl)nc3)nc2c1`, the values for the EC50 (in series [1]; in the series on H4) were 22.3 µM (active) and > 120 µM (not active), respectively.
For `Cc1ccc(Cn2c(=O)n(Cc3ccco3)c(=O)c3ccccc32)cc1`, the figures for the EC50 (in the series with Streptococcus; in [3]; at Streptokinase A) were > 150 µM (not active), 21.1 µM (active) and > 150 µM (not active), respectively.
For the compound `COc1ccc(CCNCc2ccsc2)cc1OC`, in [2], the EC50 is reported as > 195 µM (not active).
Take `CNc1nc(-c2ccccc2CN(C)C)nc2ccccc12`: the AC50 at Cytochrome P450 3A4 was 25.1 µM (inconclusive).
As to `O=C(Nc1ccccc1)N1CCCC2(CCN(C(=O)c3ccco3)CC2)C1`, the AC50 at Cytochrome P450 3A4 was 15.8 µM (inconclusive); at Cytochrome P450 2C9, 25.1 µM (inconclusive).
For the compound `CC(C)(C)c1csc(NC2=NS(=O)(=O)c3ccccc32)n1`, the EC50 in the series with H4 is given as > 120 µM (not active).
With `Cc1onc(-c2ccccc2Cl)c1C(=O)Nc1ccc(OCC(=O)N2CCOCC2)cc1`, the EC50 in [2] is > 195 µM (not active).
Turning to `COc1ccc(C2/C(=C(\O)c3ccccc3)C(C)=Nc3nc4ccccc4n32)c(OC)c1` (stereo not drawn), the EC50 with Streptococcus is 37.3 µM (active); in series [3], 14.5 µM (active); on Streptokinase A it was > 150 µM (not active).
On to `CC[C@H](c1ccccc1)c1cc(C(C)(C)C)cc(C(C)(C)C)c1O`, for which the concentration at half-maximal activity (AC50) is 5.01 µM (inconclusive) on Cytochrome P450 3A4 and 7.94 µM (inconclusive) on Cytochrome P450 2C9.
Consider `CN1CCN(S(=O)(=O)c2ccc(Oc3ccc(F)c(Cl)c3)nc2)CC1`, for which the EC50 in series [2] is reported as > 195 µM (not active).
Regarding `COCCn1c(N)c(Sc2ccccc2[N+](=O)[O-])c(=O)[nH]c1=O`, the EC50 in series [2] is > 195 µM (not active).
On to `CC(=O)N(NC(=O)c1ccccc1Cl)C1CC(=O)N(c2ccc(C)cc2)C1=O` (stereo not drawn), for which the concentration at half-maximal activity (AC50) on Cytochrome P450 2C19 (read-out: AC50) is 1 µM (inconclusive); at Cytochrome P450 3A4, 20 µM (inconclusive); at Cytochrome P450 2C9, 14.1 µM (inconclusive).
As for `COc1ccc(/C(C)=N/NC(=O)CNC(=O)/C=C\c2ccccc2)c(OC)c1`, the EC50 in series [2] is listed as > 195 µM (not active).
Turning to `CCCCOc1ccc(/N=C/c2ccc[nH]2)cc1`, the EC50 in series [2] was 33 µM (active).
Regarding `O=C(Nc1ncc(Cc2cccc(Cl)c2)s1)c1cccs1`, the AC50 on Cytochrome P450 2D6 is 7.08 µM (inconclusive); on Cytochrome P450 3A4, 15.8 µM (inconclusive). Moreover, the EC50 with Streptococcus is 7.17 µM (active); in series [3], 3.67 µM (active); at Streptokinase A, > 150 µM (not active).
